Assay results published in patent US20110065896A1, “POLYETHER POLYOL DENDRON CONJUGATES WITH EFFECTOR MOLECULES FOR BIOLOGICAL TARGETING” (MIVENION GMBH, priority 2008, published 2011).

How the values were obtained:
[1] = Fluorescence quantum yield of dendron dye in comparison to precursor dye; format: physicochemical
Text: Fluorescence quantum yield of title compound of example 4a in comparison to precursor dye dendron bis-1,1′-(4-sulfobutyl)indotricarbocyanine-5,5′-dicarboxylic acid, sodium salt

[2] = Investigation of solubilities in PBS by observation of precipitates; format: physicochemical; details: conjugate solutions in PBS obtained in examples 10b and 10c, on storage
Experimental: Conjugation with IgG antibody: To a solution of 1 mg antibody (IgG from bovine serum; Sigma, >95%, salt free, powder) in […] of phosphate-buffered saline (PBS, pH 7.4) is given […] (32 μL) of a solution of 0.5 mg of N-hydroxysuccinimidyl ester of example 9 in 0.1 mL water. The mixture is shaken at 25° C. for 24 h in the dark. Purification is achieved by filtration via a NAP10 column (Pharmacia) using PBS as eluent. As control conjugate, pyropheophorbide a —NHS-ester is used for conjugation with IgG giving IgG-pyropheo conjugate.
Conjugation with bovine serum albumine (BSA): To a solution of 1 mg BSA (Sigma, fraction V, >98%, powder) in […] of phosphate-buffered saline (PBS, pH 7.4) is given […] (70 μL) of a solution of 0.5 mg of N-hydroxysuccinimidyl ester of example 9 in 0.1 mL water. The mixture is shaken at 25° C. for 24 h in the dark. Purification is achieved by filtration via a NAP 10 column (Pharmacia) using PBS as eluent.
Investigation of solubilities in PBS by observation of precipitates from the solutions obtained in examples 10b and 10c: […]

Fluorescence quantum yield ([1]; MeOH) | Fluorescence quantum yield ([1]; PBS) | Compound | Solubility in PBS by observation of precipitates [2]
0.14 | 0.07 | CC1(C)C(=CC=CC=CC=CC2=[N+](CCCCS(=O)(=O)[O-])c3ccc(C(=O)O)cc3C2(C)C)N(CCCCS(=O)(=O)[O-])c2ccc(C(=O)O)cc21.[Na+] [Precursor dye, bis-1,1′-(4-sulfobutyl)indotricarbocyanine-5,5′-dicarboxylic acid, sodium salt] | 
 |  | BSA-pyropheo: control conjugate: pyropheophorbide a NHS-ester conjugated with BSA | immediate precipates
